Where two headings read alike, the source gives them in different places.
How the values were obtained:
[1] = tested on: BCBL-1; test: WST-1 cytotoxicity assay, BCBL-1 (KSHV+ PEL); format: cell-based; settings: BCBL1, 72 h
Excerpt: (§1) Fig 2 Identification of newly synthesized dual inhibitors with anti-PEL activities. (A) The binding mode of (+)-JQ1 with BRD4^BD1 (PDB: 3MXF). BRD4^BD1 is shown as hot pink cartoon with gray surface. Asn140 in BRD4^BD1 is shown as sticks and colored in following pattern: atom C hot pink, atom N dark blue, and atom O yellow. (+)-JQ1 is shown as sticks and colored in following patten: atom C hot pink, atom N dark blue, atom O yellow, atom S golden, and atom Cl green. The solvent exposed region (SEG) of (+)-JQ1 are indicated with white arrow. (B) The binding modes of SAHA and entinostat with HDAC2 (PDB: 3MAX). HDAC2 is shown as blue cartoon with gray surface. Asp181 and His183 in HDAC2 are shown as sticks and colored in following pattern: atom C blue, atom N dark blue, and atom O yellow. The catalytic zinc ion in the active site of HDAC2 is shown as black sphere. SAHA is shown as sticks and colored in following pattern: atom C green, atom N dark blue, and atom O yellow. Entinostat is shown as sticks and colored in following pattern: atom C hot pink, atom N dark blue, and atom O yellow. The SEG of SAHA or entinostat is indicated with white arrow. Hydrogen bonds (H-bonds) are presented by red dash lines. (C) The HDACs/BRD4 dual inhibitors 002-011 were designed by fusing the key pharmacophores of (+)-JQ1 (pink) and HDAC inhibitors (blue), SAHA or entinostat, via various chemical linkers (green). (D) Anti-PEL activities of the new compounds. Five KSHV positive and two KSHV negative lymphoma cell lines were treated with indicated concentrations of these compounds for 72 h. Then the cytotoxicity was determined using the WST-1 assay. (+)-JQ1, SAHA and entinostat were used for the comparisons as single inhibitors. The CC50 for each compound was calculated using GraphPad Prism 5.0 software. Error bars represent S.D. for 3 independent experiments.
(§2) Fig 4 Identification of anti-PEL activities for compound 009 stereoisomers. (A) The chemical structures of anti-HDACs/BRD4 bifunctional molecules 009P1 and 009P2, as well as anti-HDACs or anti-BRD4 mono-functional molecules 009N1, 009N2, 009N3, and 009N4. (B-C) Four KSHV+ PEL cell lines were treated with indicated concentrations of 009P1, 009P2 or 009N1-N4 for 72 h, then the cytotoxicity was determined using the WST-1 assay. (D-I) BCBL-1 cells were treated with these compounds at the respective 2× CC50 for 24 h, then cell cycle (D-F) and apoptosis (G-I) were measured by flow cytometry analysis. Error bars represent S.D. for 3 independent experiments, ** = p<0.01 (vs vehicle control).
(§3) The cell viability following treatment with compounds was assessed by the WST-1 assay (Roche, Indianapolis, Indiana, USA) according to the manufacturer’s protocol as described previously. The absorbance signal was measured using a microplate reader (Biotek Synergy 2). The 50% cytotoxic concentration (CC50) for each compound was calculated from these dose-response curves using the software GraphPad Prism v5.0. Data were normalized as the fold change compared to the DMSO control.

[2] = tested on: BC-1; test: WST-1 cytotoxicity assay, BC-1 (KSHV+ PEL); format: cell-based; settings: Homo sapiens, BC1, 72 h
Excerpt: as §1, §2, §3

[3] = tested on: BCP-1; test: WST-1 cytotoxicity assay, BCP-1 (KSHV+ PEL); format: cell-based; settings: BCP-1, 72 h
Excerpt: as §1, §2, §3

[4] = tested on: HUVEC; test: WST-1 cytotoxicity on primary cells HUVEC; format: cell-based, human
Experimental: as §3
Supplementary file ppat.1011089.s006.tif: S5 Fig Cytotoxicity of tested compounds on HUVEC. The primary cells HUVEC were treated with indicated concentrations of compounds for 72 h, then cell viability was assessed using the WST-1 assay. The CC50 for each compound was calculated from the dose-response curves using Graphpad Prism 5.0 software. Data was normalized as the fold change compared to the DMSO control. (TIF) Click here for additional data file.

[5] = tested on: BCBL-1 cells; test: RNA-Sequencing of compound-treated vs vehicle-treated cells; format: cell-based, human; settings: for Ratio, ARC / Ratio, ARRDC3 / Ratio, ATF3 / Ratio, CCDC169-SOHLH2 / Ratio, CD28 / Ratio, CD44 / Ratio, CFAP58 / Ratio, CHAC1 / Ratio, CSF1R / Ratio, DDIT3 / Ratio, DDIT4 / Ratio, FOS / Ratio, IFNG / Ratio, IRF7 / Ratio, LGALS9B / Ratio, MCM5 / Ratio, PRKCB / Ratio, RP11-707M3.3 / Ratio, SOCS3 / Ratio, SPINT1: gene expression, treated vs vehicle BCBL-1 cells
Experimental: RNA-Sequencing (RNA-Seq) of triplicate samples was performed by BGI Americas Corporation using their unique DNBSEQ sequencing technology. The completed RNA-Sequencing data was submitted to NCBI Sequence Read Archive (SRA# # PRJNA813422). Raw sequencing reads were analyzed using the RSEM software (version 1.3.0; human GRCh38 genome sequence and annotation) and gene expression was quantified as previously described. The EBSeq software was utilized to call differentially expressed genes that were statistically significant using a false discovery rate (FDR) less than 0.05. Differentially expressed genes between compounds- and vehicle-treated PEL cells were used as input for the GO enrichment analyses.

[6] = Pharmacokinetics in plasma of mice (LC-MS/MS); settings: male, NOD/SCID, mouse, in vivo
Experimental: The i.p. and p.o. dose were formulated with DMSO/PEG300/Tween80/saline (5/30/10/55). Samples were obtained at 0.25, 0.5, 1, 2, 4, and 8 hours post dosing via tail snipping, transferred into plastic microcentrifuge tubes containing 4 μL of K2-EDTA (0.5 M) as anti-coagulant and placed on wet ice until centrifugation. Harvested blood samples were centrifuged shortly after collection at 4,000 g 4°C for 10 minutes. After centrifugation, the amount of compounds in the plasma was determined using HPLC-coupled tandem mass spectrometry (LC-MS/MS). Values are calculated from arithmetic mean plasma concentrations (n = 3 mice per condition). AUClast and t1/2 were determined using GraphPad Prism v5.0. The bioavailability F (%) = AUClast for p.o. / AUClast for i.p. × 100 [50].

[7] = tested on: BRD4; test: BRD4 signaling by Western blot (c-Myc expression); format: cell-based
[8] = tested on: BCBL-1 cells; test: Cell death regulatory proteins by Western blot; format: cell-based; settings: 50 nM, 48 h
[9] = BCBL-1 cells, 48 h, Western blot
[10] = read-out: KSHV-infected lymphomas CC50, BCBL-1
[11] = read-out: KSHV-infected lymphomas CC50, BC-1
[12] = read-out: KSHV-infected lymphomas CC50, BCP-1
[13] = ip, mice, single i.p. 50 mg/kg, plasma, read-out: AUClast
[14] = ip, mice, single i.p. 50 mg/kg, plasma, read-out: Cmax
[15] = ip, mice, single i.p. 50 mg/kg, plasma, read-out: Tmax
[16] = ip, mice, single i.p. 50 mg/kg, plasma, read-out: t1/2 (converted)

Row | SMILES | Ratio, ARC [5] | Ratio, ARRDC3 [5] | Ratio, ATF3 [5] | Ratio, CCDC169-SOHLH2 [5] | Ratio, CD28 [5] | Ratio, CD44 [5] | Ratio, CFAP58 [5] | Ratio, CHAC1 [5] | Ratio, CSF1R [5] | Ratio, DDIT3 [5] | Ratio, DDIT4 [5] | Ratio, FOS [5] | Ratio, IFNG [5] | Ratio, IRF7 [5] | Ratio, LGALS9B [5] | Ratio, MCM5 [5] | Ratio, PRKCB [5] | Ratio, RP11-707M3.3 [5] | Ratio, SOCS3 [5] | Expression of p-RB, cleaved-caspase 3 and cleaved-PARP [8] | also measured
1 | Cc1sc2c(c1C)C(c1ccc(Cl)cc1)=N[C@@H](CC(=O)O[C@H](C)c1ccc(C(=O)Nc3ccccc3N)cc1)c1nnc(C)n1-2 [009P1, (R)-1-(4-((2-aminophenyl)carbamoyl)phenyl)ethyl 2-((S)-4-(4-chlorophenyl)-2,3,9-trimethyl-6H-thieno[3,2-f][1,2,4]triazolo[4,3-a][1,4]diazepin-6-yl)acetate] | 18.81 | 30.72 | 12.86 | 0.3358 | 0.4509 | 0.1954 | 0.1358 | 8.345 | 24.82 | 12.33 | 21.76 | 46.18 | 0.1678 | 23.79 | 0.03812 | 0.2002 | 0.02626 | 0.3443 | 41.42 | strongly affected | CC50 ([1]; read-out: CC50, BCBL-1): 16 nM; CC50 ([2]; read-out: CC50, BC-1): 42 nM; CC50 ([3]; read-out: CC50, BCP-1): 120 nM; Cytotoxicity in primary cells HUVEC [4]: much less cytotoxicity; Genes differentially expressed between 009P1- and 009P2-treated PEL cells ([5]; BCBL-1, ≥ 2 fold-change and FDR < 0.05): 473 genes; Ratio, SPINT1 [5]: 0.1504; bioavailability ([6]; 50 mg/kg): 24.5%; AUC(0-t) ([6]; ip, 50 mg/kg): 159000 ng·h/mL; Cmax ([6]; ip, 50 mg/kg): 74600 ng/mL; Tmax ([6]; ip, 50 mg/kg): 1 h; half-life ([6]; ip, 50 mg/kg): 1.66 h; AUC(0-t) ([6]; po, 50 mg/kg): 39000 ng·h/mL; Cmax ([6]; po, 50 mg/kg): 11500 ng/mL; Tmax ([6]; po, 50 mg/kg): 0.5 h; half-life ([6]; po, 50 mg/kg): 1.12 h; c-Myc expression [7, 9]: decreased
2 | Cc1sc2c(c1C)C(c1ccc(Cl)cc1)=N[C@@H](CC(=O)OC(C)(C)C)c1nnc(C)n1-2 [(+)-JQ1, reference compound] | 21.83 | 27.58 | 28.74 | 0.1299 | 0.05544 | 0.09101 | 0.2089 | 55.65 | 62.41 | 20.73 | 28.37 | 78.64 | 0.1251 | 52.67 | 0.04587 | 0.1471 | 0.06358 | 0.2212 | 37.19 | almost unchanged | CC50 [1, 10]: 18 nM; CC50 [2, 11]: 44 nM; CC50 [3, 12]: 59 nM; Cytotoxicity in primary cells HUVEC ([4]; 72 h, WST-1): moderate cytotoxicity; Ratio, SPINT1 [5]: 0.1876; AUC(0-t) [6, 13]: 78000 ng·h/mL; Cmax [6, 14]: 28700 ng/mL; Tmax [6, 15]: 1 h; half-life [6, 16]: 2.27 h; c-Myc expression [7]: drastically downregulated
3 | O=C(CCCCCCC(=O)Nc1ccccc1)NO [SAHA, suberoylanilide hydroxamic acid, reference compound] | 10.26 | 7.834 | 33.64 | 0.1697 | 0.3793 | 0.293 | 0.411 | 53.96 | 3.864 | 16.62 | 5.426 | 21.04 | 0.312 | 5.624 | 0.3605 | 0.4255 | 0.3013 | 0.2461 | 9.781 | almost unchanged | CC50 [1, 10]: 41 nM; CC50 [2, 11]: 1380 nM; CC50 [3, 12]: 1420 nM; Cytotoxicity in primary cells HUVEC ([4]; 72 h, WST-1): moderate cytotoxicity; AUC(0-t) [6, 13]: 12000 ng·h/mL; Cmax [6, 14]: 16600 ng/mL; Tmax [6, 15]: 0.25 h; half-life [6, 16]: 0.72 h; c-Myc expression [7, 9]: subtle effect
